Assay [1] has as its system Rattus norvegicus. Put plainly: Antihyperglycemic activity in Wistar albino rat streptozotocin-induced diabetic model assessed as reduction of blood glucose level at 20 mg/kg, po after 6 hrs (reference value: 372.5 +/- 15.6 mg/dl). The assay is classed as functional.
The test system of assay [2] is Rattus norvegicus. Nature of the assay: Antihyperglycemic activity in Wistar albino rat streptozotocin-induced diabetic model assessed as reduction of blood glucose level at 20 mg/kg, po after 5 hrs (reference value: 372.2 +/- 16.6 mg/dl). It counts as functional.
Assay [3] has as its system Rattus norvegicus. Put plainly: Antihyperglycemic activity in Wistar albino rat streptozotocin-induced diabetic model assessed as reduction of blood glucose level at 20 mg/kg, po after 4 hrs (reference value: 373.5 +/- 15.6 mg/dl). The assay is classed as functional.
Assay [4] deals with Rattus norvegicus. Put plainly: Antihyperglycemic activity in Wistar albino rat streptozotocin-induced diabetic model assessed as reduction of blood glucose level at 20 mg/kg, po after 3 hrs (reference value: 384.33 +/- 17.33 mg/dl). It counts as functional.
For assay [5], the system named is Rattus norvegicus. Nature of the assay: Antihyperglycemic activity in Wistar albino rat streptozotocin-induced diabetic model assessed as reduction of blood glucose level at 20 mg/kg, po after 2 hrs (reference value: 386.66 +/- 17.5 mg/dl). It counts as functional.
Assay [6] concerns Rattus norvegicus. Put plainly: Antihyperglycemic activity in Wistar albino rat streptozotocin-induced diabetic model assessed as reduction of blood glucose level at 20 mg/kg, po after 1 hr (reference value: 389.16 +/- 19 mg/dl). The assay is classed as functional.
Assay [7] relates to Rattus norvegicus. Put plainly: Antiatherosclerosis activity in Wistar albino rat streptozotocin-induced diabetic model assessed as protection from atherogenicity at 20 mg/kg, po qd for 30 days relative to control. It counts as functional.
In assay [8] the test system is Rattus norvegicus. Put plainly: Renalprotective activity in Wistar albino rat assessed as protection against streptozotocin-induced increase in creatinine level in blood at 20 mg/kg, po qd for 30 days. It counts as functional.
The test system of assay [9] is Rattus norvegicus. Put plainly: Renalprotective activity in Wistar albino rat assessed as protection against streptozotocin-induced increase in urea level in blood at 20 mg/kg, po qd for 30 days. The assay is classed as functional.
The subject of assay [10] is Rattus norvegicus. Put plainly: Antihyperlipidemic activity in Wistar albino rat streptozotocin-induced diabetic model assessed as increase of serum HDL-cholesterol level at 20 mg/kg, po qd for 30 days. The assay is classed as functional, organism-based. The arrangement: dose 20 mg/kg.
In assay [11] the test system is Rattus norvegicus. Nature of the assay: Antihyperlipidemic activity in Wistar albino rat streptozotocin-induced diabetic model assessed as reduction of serum VLDL-cholesterol level at 20 mg/kg, po qd for 30 days. The assay is classed as functional, organism-based. The arrangement: dose 20 mg/kg.
Assay [12] deals with Rattus norvegicus. Nature of the assay: Antihyperlipidemic activity in Wistar albino rat streptozotocin-induced diabetic model assessed as reduction of serum LDL level at 20 mg/kg, po qd for 30 days. The assay is classed as functional, organism-based. Further details: dose 20 mg/kg.
Assay [13] relates to Rattus norvegicus. Put plainly: Antihyperlipidemic activity in Wistar albino rat streptozotocin-induced diabetic model assessed as reduction of serum total cholesterol level at 20 mg/kg, po qd for 30 days. It counts as functional, organism-based. The arrangement: dose 20 mg/kg.
Assay [14] relates to Rattus norvegicus. Put plainly: Antihyperlipidemic activity in Wistar albino rat streptozotocin-induced diabetic model assessed as reduction of serum triglyceride level at 20 mg/kg, po qd for 30 days. It counts as functional, organism-based. Further details: dose 20 mg/kg.
Assay [15] has as its system Rattus norvegicus. Put plainly: Antihyperglycemic activity in Wistar albino rat streptozotocin-induced diabetic model assessed as increase of body weight at 20 mg/kg, po qd measured on day 15 (reference value: -30.3%). The assay is classed as functional.
Assay [16] concerns Rattus norvegicus. Put plainly: Antihyperglycemic activity in Wistar albino rat streptozotocin-induced diabetic model assessed as reduction of fasting blood glucose level at 20 mg/kg, po qd measured on day 30 relative to control. It counts as functional.
The subject of assay [17] is Rattus norvegicus. Nature of the assay: Antihyperglycemic activity in Wistar albino rat streptozotocin-induced diabetic model assessed as reduction of fasting blood glucose level at 20 mg/kg, po qd measured on day 15 (reference value: 404.2 +/- 29.15 mg/dl). The assay is classed as functional.
For assay [18], the system named is Rattus norvegicus. Nature of the assay: Antihyperglycemic activity in Wistar albino rat streptozotocin-induced diabetic model assessed as reduction of fasting blood glucose level at 20 mg/kg, po qd measured on day 1 (reference value: 416.4 +/- 24.2 mg/dl). It counts as functional.

Active and inactive are the calls of the source. The rule behind the calls is not given here.

On to `COc1ccc(Cl)cc1C(=O)NCCc1ccc(S(=O)(=O)NC(=O)NC2CCCCC2)cc1` [GLYBURIDE], for which the Activity amounted to 206 mg/dL in [1]; 188.1 mg/dL in [2]; 197.6 mg/dL in [3]; 213.3 mg/dL in assay [4]; 237 mg/dL in assay [5]; 243.5 mg/dL in [6]. In addition, the Activity in [7] was 55.5%; in [8] it was 0.425 mg/dL; in assay [9], 49.1 mg/dL; in assay [15], -10%; in [16], 188.1 mg/dL; in assay [17], 204 mg/dL. The Activity in assay [18] was found to be 356 mg/dL. Also, the outcome in [10], in assay [11], in [12], in [13] and in assay [14] was Active.

Source of the values: ChEMBL document CHEMBL2412969, “Antihyperglycemic and antihyperlipidemic activities of 2-(4-[(2-hydroxybenzyl) amino]-phenyl amino-methyl)-phenol in STZ induced diabetic rats” (Eur J Med Chem, 2013).
